# Earlier results, collected in patent publication US20030162803A1, “Anhydrovinblastine for the treatment of cancer” (priority 1997, published 2003).
# Details: triphasic elimination profile; cited from earlier work
compound,measurement,value
CC[C@]1(O)C[C@@H]2CN(CCc3c([nH]c4ccccc34)[C@@](C(=O)OC)(c3cc4c(cc3OC)N(C)[C@H]3[C@@](O)(C(=O)OC)[C@H](OC(C)=O)[C@]5(CC)C=CCN6CC[C@]43[C@@H]65)C2)C1 [Vinblastine],initial alpha half-life,less than 5 minutes
